Where two headings read alike, the source gives them in different places.
How the values were obtained:
[1] = tested on: orthotopic GBM model; conditions: cited from earlier work
[2] = tested on: SJ-GBM2; assay: Validation in established cell lines (0.1-10,000 nM, triplicates, 72 h, CellTiter-Glo 2.0); format: cell-based, human; conditions: for IC50: SJ-GBM2, metabolic activity; for Emax: validation, maximum effect, 0.1-10,000 nM, 72 h
Experimental: (§1) Following 72-hour exposure cell viability was measured using CellTiter-Glo 2.0 Assay (cat.no. G9241, Promega) and the Spark microplate reader (Tecan).
(§2) DSS3 (single drug screen and validation steps) and Emax (validation step only) were estimated based on four-parameter logistic curves.

[3] = tested on: UW228-2; assay: as above; format: cell-based, human; conditions: for IC50: UW228-2, metabolic activity; for Emax: UW228-2, validation, maximum effect, 0.1-10,000 nM, 72 h
Experimental: as §1, §2

[4] = tested on: TP53mut cancer cell lines SJ-GBM2 and UW228-2; assay: Drug combination screen (synergy scores, SynergyFinder+); format: cell-based, human; conditions: TP53mut brain cancer cell lines
Experimental: Drugs were tested in combinations in vitro using TP53^mut cancer cell lines SJ-GBM2 and UW228-2. […] Cell metabolic activity was measured in the same way as in the single drug screen (3 technical replicates x min. 3 biological replicates for each condition).
(§3) In analysis of the results from PDO lines Synergy finder+ was used and growth curves were generated using R version 4.2.2 (package drc). Presented synergy scores are averages across 3 biological replicates (each with two technical replicates, from which a mean value was calculated).

[5] = tested on: DKFZ-BT084 PDX (LFS-associated SHH-MB), orthotopic in NSG mice; assay: In vivo drug testing in LFS SHH-MB PDX model; design: species or system mouse; conditions: adavosertib 60 mg/kg p.o. 5 times/week, vincristine 0.5 mg/kg i.p. once weekly, 4 weeks
Experimental: Animal experiment permits (G-193/21 and G-135/23) were issued by the Regional Council in Karlsruhe. In in vivo drug treatment and in vivo target dependence experiments female NOD.Cg-Prkdc^scidIl2rg^tm1Wjl/SzJ (NSG) mice were used. Intracranial patient-derived xenograft (PDX) tumor cell injections were performed in 6-8-week old animals. Following LFS-associated SHH-MB PDX models were injected: DKFZ-BT084[86] (relapsed tumor), LFS_primary[78] (gift from Prof. Aurélie Ernst, treatment-naive) and HS231222 (newly-established model, treatment-naive). After tumor detection mice were randomly assigned into 4 treatment groups (4-5 animals/group) without blinding.
LFS_primary[78] (gift from Aurélie Ernst) and HS231222. […] The control group received treatment with solvents only.

[6] = tested on: TP53mut SHH-MB patient-derived organoids (PDOs); assay: Drug treatment assay in PDOs, summary over all three PDO models; format: cell-based; conditions: Homo sapiens
Experimental: (§4) Cells were treated with DMSO as negative control and with Staurosporine (10 μM) (BIO-CONNECT BV, cat.no. 62996-74-1) as positive control. Metabolic activity was measured 72h after drug treatment by adding 40 μL of CellTiter-Glo 3D cell viability assay (Promega, cat.no. G9683) to each well, shake for 5 minutes using the Multidrop Combi system dispenser and incubated at room temperature and in the dark for an additional 25 minutes. Thereafter, bioluminescence was measured using the CLARIOstarplus (BMG Labtech) plate reader. Results were normalized to DMSO negative controls (100% viability) and Staurosporine positive controls (0% viability).
as §3

[7] = tested on: SJGBM-2 and UW228-2; assay: Validation in established cell lines, Emax criterion in both cancer cell lines; format: cell-based; conditions: Homo sapiens; SJGBM-2 and UW228-2, selection criterion; read-out: maximum effect (Emax) in cancer cell lines
Excerpt: as §2

[8] = tested on: TP53mut SHH-MB patient-derived organoid MED113FH; assay: Drug treatment assay in PDOs (72 h, CellTiter-Glo 3D); format: cell-based, human; conditions: PDO MED113FH, single drug; for IC50: Homo sapiens
Experimental: as §4, §3

[9] = tested on: TP53mut SHH-MB patient-derived organoid B062-13315; assay: as above; format: cell-based, human; conditions: PDO B062-13315, single drug; for IC50: Homo sapiens
Experimental: as §4, §3

[10] = tested on: TP53mut SHH-MB patient-derived organoid B062-008; assay: as above; format: cell-based, human; conditions: PDO B062-008, single drug; for IC50: Homo sapiens
Experimental: as §4, §3

[11] = tested on: LFS fibroblasts; assay: Genotoxicity screen, Micronucleus Test (MNT); format: cell-based, human; design: key: MNT score = number of micronuclei / number of nuclei; conditions: Cmax concentration (or concentration causing 20% decrease of viability), 120 h, median
Experimental: To evaluate genotoxicity of compounds, the Micronucleus Test (MNT)[96]^,[97] method was used. […] Next, the cells were visualized using ImageXpress Micro 4 High-Content Imaging System (Molecular Devices, LLC) and 4 images for each well were analyzed with CellProfiler version 4.1.3 (the pipeline described in the supplementary information).
The MNT score for a specific compound was calculated according to a following formula: MNTscore=(numberofmicronuclei/numberofnuclei)
Resulting MNT scores were compared to negative (DMSO) and positive (mitomycin C) control scores using Welch t-test (R version 4.2.2, packages stat, ggplot2). If scores were statistically different from positive control, then the compound was classified as non-genotoxic. If scores were statistically different from negative control, then the compound was classified as genotoxic.

[12] = tested on: CDK1 phosphorylation (phospho Y15) in SJ-GBM2 and UW228-2; assay: Adavosertib pharmacodynamic marker (Western blot) in cell lines; format: cell-based, human; conditions: adavosertib 100 nM, 300 nM for 8 and 24 hours
Excerpt: Protein concentration of cell lysates were estimated using the Pierce BCA Protein Assay Kit (cat. no. 23225, ThermoFisher Scientific). For detecting CDK1 phosphorylation the following antibodies were used: α-CDK1 (phospho Y15) [BLR101H] (cat.no. ab275958, Abcam), α-Cdk1/Cdk2 (AN21.2) (cat.no. sc-53219, Santa Cruz Biotechnology, Inc.), α-HSP90 (cat.no. 4877, Cell Signaling Technology). Western blot bands were visualized using Amersham ECL Prime Western Blotting Detection System (cat. no. RPN2232SK, GE Healthcare) and quantified using ImageJ (version 1.50b, Wayne Rasband and co., NIH). Post analysis brightness and contrast of presented images was increased by 50%.

[13] = tested on: Trp53+/- LFS mouse model (Trp53tm1Tyj/J); conditions: for Survival: Trp53+/- mice, 4-week treatment and 4-week observation period
Experimental: At the age of 6-8-weeks mice were randomly assigned into 4 treatment groups (3-4 animals/group) without blinding.
4-week treatment period was followed by 4-week observation period to monitor for drug toxicity-related symptoms. Afterwards the animals were sacrificed and organs (brain, liver, spleen and kidney) were extracted. Tissues were fixed for 48 hours in Roti®-Histofix 4 % (cat.no. P087.5, Roth) followed by dehydration in 50% Ethanol. […] For γH2AX (p-S139) staining 4 μm FFPE tissue sections were cut, deparaffinized and re-hydrated. […] Antibody- and H&E-stained specimens were evaluated by the pathologist (T.G.P.G.). Images were taken with the Leica DM3000 LED microscope (10-fold magnification) and analyzed using Fiji v.2.16.0 (Java 8) and R version 4.2.2 (packages ggplot2 and ggsignif).
At the stage of designing experiments, a power analysis was performed for BT084 and LFS_primary models using R version 4.1.0 (type I error: 5%, type II error: 20%). Survival, IVIS readout and weight was analyzed using R version 4.2.2 (packages stat, ggplot2, ggsignif, survival, survminer and stats). Images were analyzed using Fiji v.2.16.0 (Java 8) and R version 4.2.2 (packages ggplot2 and ggsignif).

[14] = tested on: caspase-3 activity in SJ-GBM2 and UW228-2; assay: Caspase-3 assay (fluorometric) 48 hours after treatment; format: cell-based, human; conditions: SJ-GBM2 and UW228-2, 48 hours
Experimental: (§5) SJ-GBM2 and UW228-2 cells were transfected with ON-TARGETplus Human WEE1 siRNA (SMARTPool, cat.no. L-005050-00, Dharmacon Reagents) using Lipofectamine RNAiMAX Transfection Reagent (cat. no. 13778075, Invitrogen). WEE1 knockdown at protein level was confirmed by Western blot (α-WEE1 antibody [B-11], cat.no. sc-5285, Santa Cruz Biotechnology). After 72 hours cell viability was measured as described in Single drug screening method section. Caspase assay was performed 48 hours after treatment according to manufacturer instructions (cat.no. ab39383, Abcam).

[15] = Cmax from literature; ref PMID: 32635465; cited from earlier work
[16] = tested on: SJ-GBM2; assay: WEE1 siRNA knockdown and vincristine, cell viability after 72 hours; format: cell-based; conditions: Homo sapiens; SJ-GBM2, 72 hours, vincristine 0.5 nM, compared to control siRNA
Experimental: as §5
(§6) Western blot bands were quantified using ImageJ (version 1.50b, Wayne Rasband and co., NIH). The readouts from 3 biological replicates were analyzed using R version 4.2.2 (packages ggplot2, DSS, stats) and presented as mean values with standard deviations.

[17] = tested on: UW228-2; assay: as above; format: cell-based; conditions: Homo sapiens; UW228-2, 72 hours, vincristine 0.5 nM, compared to control siRNA
Experimental: as §5, §6

[18] = mean over three PDOs, metabolic activity, read-out: mean IC50
[19] = range over three PDOs, read-out: IC50 range

Q: What does the source list for `Cc1cc(Nc2ncc3c(n2)N(C)CN(c2c(Cl)cccc2Cl)C3=O)ccc1C1CCN(C)CC1` [Debio 0123]?
A: BBB penetration [1]: ability to cross BBB; IC50 [2]: 147 nM; IC50 [3]: 270 nM; interaction in combination with vinca alkaloid (synergy score) [4]: additive interaction

Q: With `C=CCn1c(=O)c2cnc(Nc3ccc(N4CCN(C)CC4)cc3)nc2n1-c1cccc(C(C)(C)O)n1` [Adavosertib] as the molecule, how does the IC50 ([2]; Homo sapiens) read?
A: 43.4 nM

Q: And the Emax ([2]; Homo sapiens)?
A: 98.1%

Q: And the Emax ([3]; Homo sapiens)?
A: 89.1%

Q: What about the IC50 ([3]; Homo sapiens) of the same molecule?
A: 273 nM

Q: What about the “Median lifespan since tumor detection” value [5] of the same molecule?
A: 9 days

Q: What about the IC50 [6, 18] of the same molecule?
A: 166 nM

Q: And the IC50 [6, 19]?
A: 117 to 215 nM

Q: And the Emax [7]?
A: > 50%

Q: What about the IC50 [8] of the same molecule?
A: 167 nM

Q: And the DSS [8]?
A: 9,53

Q: What about the IC50 [9] of the same molecule?
A: 117 nM

Q: And the DSS [9]?
A: 17,70

Q: What about the IC50 [10] of the same molecule?
A: 215 nM

Q: What about the DSS [10] of the same molecule?
A: 8,36

Q: What about the “MNT_median (micronucleus test score)” value [11] of the same molecule?
A: 1,44

Q: And the “levels of CDK1 phosphorylation” value [12]?
A: reduced levels of CDK1 phosphorylation

Q: And the Survival [13]?
A: 100%

Q: Which results are given for `CC[C@]1(O)C[C@H]2CN(CCc3c([nH]c4ccccc34)[C@@](C(=O)OC)(c3cc4c(cc3OC)N(C=O)[C@H]3[C@@](O)(C(=O)OC)[C@H](OC(C)=O)[C@]5(CC)C=CCN6CC[C@]43[C@@H]65)C2)C1` [Vincristine]?
A: IC50 ([2]; Homo sapiens): 1.1 nM; Emax ([2]; Homo sapiens): 92.5%; Emax ([3]; Homo sapiens): 52.2%; IC50 ([3]; Homo sapiens): 0.9 nM; caspase-3 activity [14]: did not influence caspase-3 activity; Cmax [15]: 36 nM; viability at 0.0005 µM [16]: 62.9%; viability at 0.0005 µM [17]: 80.2%; Median lifespan since tumor detection [5]: 20.5 days; IC50 [6, 18]: 6.8 nM; IC50 [6, 19]: 1.38 to 11.9 nM; Emax [7]: > 50%; IC50 [8]: 11.9 nM; DSS [8]: 16,96; IC50 [9]: 1.38 nM; DSS [9]: 54,34; IC50 [10]: 7.24 nM; DSS [10]: 22,69; MNT_median (micronucleus test score) [11]: 2,59; Survival [13]: 100%; genotoxicity or organ-specific toxicities ([13]; mouse, in vivo): low to no genotoxicity or organ-specific toxicities

Source: PMC12828543, “Preclinical drug screen identifies WEE1 inhibitor and vinca alkaloid as a combination treatment concept for Li-Fraumeni syndrome medulloblastoma” (iScience, 2025)
